Data as given in the supplement of paper PMC11451515.

System: SEM cells
Assay: cell viability relative to DMSO control; higher = less cytotoxic
Details: 48 h
Outline: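 NOMO1, SEM and P12-Ichikawa leukemia cells spent at least four passages adapting to each medium before use. They were seeded at 500 cells/well (NOMO1, SEM) or 1000 cells/well (P12-Ichikawa) in 5 μl in 1536-well plates and pin-dosed with library compounds in DMSO at 11 threefold steps from 47 μM down to 0.79 nM. After 48 h at 37°C, CellTiter-Glo One luminescence was read. Viability is reported as a percentage of the DMSO wells on each plate, with cell-free wells as background.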

[1] = HPLM + 10% dialyzed FBS, 0.000781 µM
[2] = HPLM + 10% dialyzed FBS, 0.00234 µM
[3] = HPLM + 10% dialyzed FBS, 0.00702 µM
[4] = HPLM + 10% dialyzed FBS, 0.0211 µM
[5] = HPLM + 10% dialyzed FBS, 0.0632 µM
[6] = HPLM + 10% dialyzed FBS, 0.19 µM
[7] = HPLM + 10% dialyzed FBS, 0.569 µM
[8] = HPLM + 10% dialyzed FBS, 1.71 µM
[9] = HPLM + 10% dialyzed FBS, 5.12 µM
[10] = HPLM + 10% dialyzed FBS, 15.4 µM
[11] = HPLM + 10% dialyzed FBS, 46.1 µM
[12] = RPMI 5 mM glucose + 10% FBS, 0.000781 µM
[13] = RPMI 5 mM glucose + 10% FBS, 0.00234 µM
[14] = RPMI 5 mM glucose + 10% FBS, 0.00702 µM
[15] = RPMI 5 mM glucose + 10% FBS, 0.0211 µM
[16] = RPMI 5 mM glucose + 10% FBS, 0.0632 µM
[17] = RPMI 5 mM glucose + 10% FBS, 0.19 µM
[18] = RPMI 5 mM glucose + 10% FBS, 0.569 µM
[19] = RPMI 5 mM glucose + 10% FBS, 1.71 µM
[20] = RPMI 5 mM glucose + 10% FBS, 5.12 µM
[21] = RPMI 5 mM glucose + 10% FBS, 15.4 µM
[22] = RPMI 5 mM glucose + 10% FBS, 46.1 µM
[23] = RPMI 5 mM glucose + 10% dialyzed FBS, 0.000781 µM
[24] = RPMI 5 mM glucose + 10% dialyzed FBS, 0.00234 µM
[25] = RPMI 5 mM glucose + 10% dialyzed FBS, 0.00702 µM
[26] = RPMI 5 mM glucose + 10% dialyzed FBS, 0.0211 µM
[27] = RPMI 5 mM glucose + 10% dialyzed FBS, 0.0632 µM
[28] = RPMI 5 mM glucose + 10% dialyzed FBS, 0.19 µM
[29] = RPMI 5 mM glucose + 10% dialyzed FBS, 0.569 µM
[30] = RPMI 5 mM glucose + 10% dialyzed FBS, 1.71 µM
[31] = RPMI 5 mM glucose + 10% dialyzed FBS, 5.12 µM
[32] = RPMI 5 mM glucose + 10% dialyzed FBS, 15.4 µM
[33] = RPMI 5 mM glucose + 10% dialyzed FBS, 46.1 µM

SMILES	cell viability [1]	cell viability [2]	cell viability [3]	cell viability [4]	cell viability [5]	cell viability [6]	cell viability [7]	cell viability [8]	cell viability [9]	cell viability [10]	cell viability [11]	cell viability [12]	cell viability [13]	cell viability [14]	cell viability [15]	cell viability [16]	cell viability [17]	cell viability [18]	cell viability [19]	cell viability [20]	cell viability [21]	cell viability [22]	cell viability [23]	cell viability [24]	cell viability [25]	cell viability [26]	cell viability [27]	cell viability [28]	cell viability [29]	cell viability [30]	cell viability [31]	cell viability [32]	cell viability [33]
OC1=CC=C(C=C1)\C2=C\OC3=C(C(=CC(=C3)O)O)C2=O	95.4%	109%	96.8%	105%	108%	119%	112%	79.1%	105%	102%	74.8%	93.1%	82.2%	89.8%	86%	91%	95.7%	94.2%	56.6%	91.9%	72.7%	36.2%	94.5%	103%	104%	102%	119%	115%	115%	65.1%	92.6%	101%	59%
CCc1cc(C(N)=S)ccn1	80.7%	81.5%	88%	86.3%	91.5%	92.3%	90.8%	89.8%	91.2%	54.7%	84.7%	112%	103%	98.1%	108%	104%	107%	102%	97.8%	88.4%	36.1%	68.7%	94.9%	99.1%	89.8%	106%	101%	116%	102%	94.5%	100%	53.9%	64.2%
CC(C)(S)[C@@H](N)C(=O)O	75.7%	94.7%	96%	109%	72.8%	108%	90.5%	110%	97.3%	104%	20%	75%	94.5%	100%	100%	64.8%	110%	110%	107%	113%	107%	13.3%	91.1%	99.8%	105%	99.4%	84.9%	103%	104%	107%	122%	116%	16.1%
C=C1C(=O)[C@@]23C(CC[C@@H]1[C@H]2O)[C@@]12CO[C@]3(O)[C@@H](O)[C@@H]1C(C)(C)CC[C@@H]2O (stereo partly specified)	102%	96.9%	109%	113%	119%	103%	98.5%	103%	70%	20.5%	3.53%	106%	86.9%	107%	101%	104%	102%	86.7%	67.7%	37%	4.45%	2.3%	105%	7.74%	99.2%	109%	113%	107%	92%	97.3%	49.3%	9.6%	2.85%
ClC1=CC=C2N/C3=N/C(=O)CN3CC2=C1Cl	123%	124%	120%	134%	126%	119%	132%	138%	125%	115%	105%																						
NC[C@@H]1O[C@H](O[C@H]2[C@@H](O)[C@H](O[C@@H]3[C@@H](O)[C@H](N)C[C@H](N)[C@H]3O[C@H]3O[C@H](CN)[C@@H](O)[C@H](O)[C@H]3N)O[C@@H]2CO)[C@H](N)[C@@H](O)[C@@H]1O.O=S(=O)(O)O.O=S(=O)(O)O.O=S(=O)(O)O	104%	99.7%	103%	106%	98.4%	99.4%	104%	91%	98.7%	105%	106%	92.9%	105%	110%	98.8%	69.1%	101%	101%	102%	104%	94%	105%	109%	115%	116%	113%	90.7%	104%	115%	105%	108%	105%	100%
CCN1\C=C(\C(O)=O)C(=O)C2=C1N=C(N3CCNCC3)C(=C2)F	58.6%	79.7%	68.2%	87.3%	84.8%	92.3%	84.8%	88.5%	84.2%	81%	68%	77.9%	102%	72%	82%	92.5%	84.5%	92.8%	81.9%	86%	89.6%	77.4%	74.9%	86.8%	71.2%	90.4%	78.1%	84%	90.5%	93.9%	81.5%	103%	87.8%
CC[S+](=O)([O-])Nc1ccc2c(c1)/C(=C(/Nc1ccc(CN3CCCCC3)cc1)c1ccccc1)C(=O)N2	117%	112%	108%	95.5%	71.3%	27.8%	23.9%	19.4%	18.5%	5.02%	3.36%	110%	108%	111%	108%	89.1%	17.9%	18.1%	13.8%	10%	3.47%	2.27%	118%	110%	126%	103%	89.7%	18.5%	16.3%	13.6%	11.5%	6.15%	2.34%
CN1C(=O)C(=C\C2=C1N=C(NC3=CC=CC(=C3)C(O)=O)N=C2)/C4=C(Cl)C=CC=C4Cl	106%	114%	108%	112%	110%	116%	107%	110%	104%	67.4%	31.9%	103%	124%	132%	114%	125%	123%	90.9%	101%	84.2%	65.6%	25%	106%	118%	136%	130%	121%	115%	100%	116%	97%	73.1%	37.8%
C[C@]12Cc3cn[nH]c3C[C@@H]1CC[C@@H]1[C@@H]2CC[C@@]2(C)[C@H]1CC[C@]2(C)O	108%	105%	105%	79.7%	100%	88.6%	83.6%	75.8%	90.4%	97.4%	88.1%	102%	108%	104%	119%	116%	104%	118%	104%	99.4%	114%	101%	103%	94.9%	106%	123%	110%	103%	108%	107%	111%	105%	95.8%
O=C(CS(=O)Cc1ccco1)NC/C=C\COc1cc(CN2CCCCC2)ccn1 (stereo unspecified)	78.7%	86.2%	89.4%	96.9%	93.8%	99.5%	102%	96.7%	102%	100%	97.3%	86%	91.3%	90.7%	87.1%	96.8%	95.5%	107%	106%	93.6%	102%	103%	81.5%	93.7%	98.4%	75.9%	97.1%	88.4%	106%	97.3%	110%	99.8%	93.9%
N#Cc1ccc(Oc2ccc3c(c2)COB3O)cc1	111%	122%	111%	104%	124%	114%	126%	114%	117%	105%	46.4%	105%	108%	112%	92.3%	122%	114%	115%	133%	120%	129%	26.9%	115%	127%	119%	85%	126%	107%	120%	129%	97.3%	124%	38.4%
C=C1C(=O)OC(CCCCCCCC)C1C(=O)O (stereo unspecified)	97.2%	108%	106%	118%	108%	105%	111%	107%	90.6%	125%	113%	97.5%	99.9%	111%	106%	102%	119%	108%	113%	14.1%	125%	113%	111%	98.2%	111%	126%	120%	128%	125%	117%	84.3%	121%	121%
COc1cc(Nc2c(C#N)cnc3cc(OCCCN4CCN(C)CC4)c(OC)cc23)c(Cl)cc1Cl	87.1%	96.8%	114%	113%	111%	95%	109%	54.6%	13%	5.77%	6.12%	72.5%	68.2%	75.7%	74.8%	73.1%	84.7%	68.1%	44%	7.02%	3.9%	4.3%	95.9%	89.4%	103%	105%	96.1%	98%	100%	62.1%	17.5%	5.92%	5.77%
NC(=O)[C@H]1CCS[C@@H]2C[C@]3(CCCN3C(=O)Cc3ccc(NC(=O)COc4ccc(Cl)cc4Cl)cc3)C(=O)N12	96.1%	101%	94%	107%	104%	103%	97.7%	61.4%	38%	28.2%	31.5%	105%	106%	112%	107%	121%	103%	85.7%	18.4%	16.2%	19.6%	10.2%	115%	102%	123%	120%	113%	114%	117%	66.6%	35.1%	20.8%	19.9%
CCOc1cc2ncc(C#N)c(Nc3ccc(F)c(Cl)c3)c2cc1NC(=O)/C=C/CN(C)C	88.3%	118%	120%	123%	118%	73.1%	71%	55.6%	37.4%	20.1%	4.15%	75.1%	110%	108%	114%	116%	58.9%	52.1%	40.2%	24.5%	11.5%	3.17%	79.9%	115%	131%	120%	126%	66.2%	67.3%	52%	29.9%	11.7%	3.53%
